Source: the OPERA property sets (Mansouri et al. 2018)

Conditions: for log10 BCF / log10 biotransformation half-life (days): fish

Compound	melting point [°C]	boiling point [°C]	also measured
COC(=O)c1cccc(Cl)c1	21		
N#CCCN(CCOC(=O)c1ccccc1)c1ccc(N=Nc2ccc([N+](=O)[O-])cc2)cc1			ready biodegradability: not readily biodegradable
ClC1=C(Cl)C2(Cl)C3C(Cl)C=CC3C1(Cl)C2(Cl)Cl (centres undefined)	95.5	310	log10 Henry constant (atm·m³/mol): -3.53; log10 Koa: 7.64; log10 Koc (L/kg): 4.38; log10 vapour pressure (mmHg): -3.4; ready biodegradability: not readily biodegradable; log10 BCF: 3.94; log10 biotransformation half-life (days): 1.45
CCCCC(CC)CCC(=O)CC(C)C (centres undefined)		252	
Cc1cccc(C)c1Br		204	
CCOC(=O)c1cccc(N)c1		294	
Nc1ccc([N+](=O)[O-])c2c1C(=O)c1c(Cl)ccc(Cl)c1C2=O	307		log10 vapour pressure (mmHg): -12.4
CCCC(=O)OC	-85.8	103	log10 Henry constant (atm·m³/mol): -3.69; log10 vapour pressure (mmHg): 1.51
N#Cc1cc(F)c(F)c(F)c1F		164	
CCCOc1ccc([N+](=O)[O-])cc1N	49		
CC(=O)Nc1ncc([N+](=O)[O-])s1	264		
COc1cc(CC#N)ccc1O	56.5		
COc1ccccc1C1CCCCC1		268	
CCC(C)c1ccccc1 (centres undefined)	-82.7	174	log10 vapour pressure (mmHg): 0.243
C#CC(C)(C)NC(=O)c1ccc(OC)cc1			log10 Koc (L/kg): 1.83
O=S1(=O)CCCC1	27.6	285	ready biodegradability: not readily biodegradable; log10 BCF: 0.85
CC1=CCC(C(C)C)=CC1	-10	183	log10 Henry constant (atm·m³/mol): -1.59; log10 vapour pressure (mmHg): 0.0362; ready biodegradability: readily biodegradable
C[Si](C)(C)O[Si](C)(C)O[Si](C)(C)O[Si](C)(C)O[Si](C)(C)C	-80	232	log10 vapour pressure (mmHg): -0.991
COC(F)(F)C(F)(F)F			log10 vapour pressure (mmHg): 3.21
COC1CCCCC1	-74.4	133	
C=CCCCO		141	
CCOC(=O)CCC(=O)CC1(O)C2(Cl)C3(Cl)C4(Cl)C(Cl)(Cl)C5(Cl)C3(Cl)C1(Cl)C5(Cl)C42Cl (centres undefined)	91		
CCC1(C)OCCO1		116	
CC(C)C1=CC[C@H](C)CC1		168	

Compound	melting point [°C]	boiling point [°C]	also measured
Nc1ccc(-c2ccc(N)c(Cl)c2)cc1Cl	132	368	log10 Koc (L/kg): 4.35; ready biodegradability: not readily biodegradable; log10 BCF: 2.16; log10 biotransformation half-life (days): -0.13
CC(C)C1CCCc2ccccc21 (centres undefined)			ready biodegradability: not readily biodegradable
Clc1ccoc1		80	
CN(C)C(=O)N(C(=O)c1ccccc1)c1ccc(Cl)c(Cl)c1	119		
CC1=CC(=O)CC(C)(C)C1	-8.1	215	log10 Koc (L/kg): 1.4; log10 vapour pressure (mmHg): -0.358; ready biodegradability: readily biodegradable; log10 BCF: 0.3; log10 biotransformation half-life (days): -1.29
CCC(C)C(C)C(C)=O (centres undefined)		158	
Nc1ncnc2c1ncn2[C@H]1CC[C@@H](CO)O1	185		
CCN=C=O		60	
COc1nn(CSP(=S)(OC)OC)c(=O)s1	39		log10 Koc (L/kg): 1.53; log10 vapour pressure (mmHg): -5.47; log10 BCF: 0.74; log10 biotransformation half-life (days): -1.15
COc1ccc(O)cc1	57	243	ready biodegradability: readily biodegradable
O=S(=O)(O)c1cccc(S(=O)(=O)O)c1			ready biodegradability: not readily biodegradable
Cc1ccccc1-c1ccccc1C	19.5	256	
O=[N+]([O-])c1cccc(C(F)(F)F)c1	-2.4	203	log10 vapour pressure (mmHg): -0.587
CSc1nnc(C(C)(C)C)c(=O)n1/N=C/C(C)C	159		log10 vapour pressure (mmHg): -6.46
c1ccc(C(c2ccccc2)c2ccccc2)cc1	94	359	log10 vapour pressure (mmHg): -5.25
O=S(=O)(c1ccc(Cl)cc1)c1cc(Cl)c(Cl)cc1Cl	147		log10 vapour pressure (mmHg): -9.62; ready biodegradability: not readily biodegradable
c1ccc(Cn2cccc2)cc1	15	247	
Cc1ccc(Sc2ccc(C)cc2)cc1	57.3		
CCN(C#N)CC	-80.6	188	
CNC(=O)Nc1ccc(C)c(Cl)c1			log10 Koc (L/kg): 2.1
O=[N+]([O-])c1ccc(CCc2ccc([N+](=O)[O-])cc2)cc1	181		
CCCCCCCC(=O)NN	88		
CC(C)C[N+](=O)[O-]	-76.8	140	log10 vapour pressure (mmHg): 0.838
CCCCCCCCCCCC(=O)OCC	-10	271	

Compound	melting point [°C]	boiling point [°C]	also measured
Cc1ccc(O)c2ccccc12	85.8		
O=C1c2ccccc2C(=O)C1c1ccc(Cl)cc1	146		
Nc1c(Cl)c(Cl)cc(Cl)c1Cl	107		log10 Koc (L/kg): 3.94; log10 BCF: 2.52
CCOC(=O)NC(N)=O	196		
NS(=O)(=O)c1ccc([N+](=O)[O-])cc1	179		
OC(CCl)CCl	-4	176	log10 vapour pressure (mmHg): -0.125; ready biodegradability: readily biodegradable
CC/C=C\C/C=C\C/C=C\CCCCCCCC(=O)O	-16.5		log10 vapour pressure (mmHg): -6.27; ready biodegradability: readily biodegradable
O=S1(=O)CCCCO1	13.5		
CCC1=CCCCC1	-110	137	
CC(=O)C1=CCCCC1	73	202	
CC(=O)c1cc2c(cc1C)C(C)(C)C(C)CC2(C)C (centres undefined)	54.5		
FC(F)Br	-145	-15.5	
COC(=O)CCO		179	
O=C(CO)c1ccccc1	90		
NC(=O)c1ccccc1C(N)=O	222		
CC(=O)Nc1ccc(OC(=O)c2ccccc2OC(C)=O)cc1	175		
O=C(c1ccccc1O)c1ccccc1O	59.5	333	
C#CC(C)(C)O	3	104	log10 Henry constant (atm·m³/mol): -5.41; log10 vapour pressure (mmHg): 1.2
CCC(C)(Cl)CC		116	
CC(C)CON=O		67	
COC1CCC(OC)O1 (centres undefined)		146	
Cc1ccccc1C#N	-13.5	205	log10 vapour pressure (mmHg): -0.348
Cc1cc2ccccc2c2ccccc12			log10 biotransformation half-life (days): 0.12
CCCCC(CC)COC(=O)c1ccc(C(=O)OCC(CC)CCCC)cc1 (centres undefined)	-48	383	log10 Koc (L/kg): 4.16

Compound	melting point [°C]	boiling point [°C]	also measured
O=C(O)c1ccc([N+](=O)[O-])cc1[N+](=O)[O-]	182		
Cc1cc(C)cc(-c2ccccc2)c1	22.5	274	
CC(=O)Nc1ccc2c(c1)Cc1cc([N+](=O)[O-])ccc1-2	262		
Cc1ccccc1CO	38	224	
CC[N+](C)(C)CCN(C)CC[N+](C)(C)CC.[Br-].[Br-]	214		
CCCCCCCCC(O)CCCCCCCC	61		
CC(C)c1ccc(Br)cc1	-22.5	219	
C[C@]12CCC(=O)C=C1C=C[C@@H]1[C@@H]2CC[C@@]2(C)[C@H]1CC[C@@]21CCC(=O)O1	150		
CC=C(C)CC	-137	69	log10 vapour pressure (mmHg): 2.2
CCOCCC(OCC)OCC	53	185	
C=COCCOCCO		196	
FCCF		30.7	log10 vapour pressure (mmHg): 2.79
Cn1cc(-c2ccccc2)c(=O)c(-c2cccc(C(F)(F)F)c2)c1	154		log10 Koc (L/kg): 2.85; log10 vapour pressure (mmHg): -7.01; ready biodegradability: not readily biodegradable
O=C(O)CC1CCCCC1	33	245	
COc1c(C(C)C)oc2cc3oc(=O)ccc3cc12	85		
Cc1ccc(Cl)c(N)c1	29.5	229	
C#CC(C)(C)NC(=O)c1ccc(C)cc1			log10 Koc (L/kg): 1.76
CC(C)=CC1C(C(=O)OCc2cccc(Oc3ccccc3)c2)C1(C)C (centres undefined)			log10 vapour pressure (mmHg): -6.84
O=C(O)c1cc([N+](=O)[O-])ccc1[N+](=O)[O-]			log10 Koc (L/kg): 2.3
Nc1ccccc1C(=O)O	145		ready biodegradability: readily biodegradable
Cc1ccc2[nH]c(C)c(C)c2c1	122	297	
COc1ccc(C(C)(C)C)cc1		238	
CC(=O)OCCOCCOCCOC(C)=O	-50	286	
O=C(O)c1cccc(C(=O)O)c1O	244		

Compound	melting point [°C]	boiling point [°C]	also measured
COC(=O)c1sccc1S(=O)(=O)NC(=O)Nc1nc(C)nc(OC)n1	176		log10 Koc (L/kg): 1.45; log10 vapour pressure (mmHg): -9.89
COC(=O)C(=O)Cl		119	
Cc1c(O)cc2c(c1C)OC(C)(CCCC(C)CCCC(C)CCCC(C)C)CC2 (centres undefined)	-3		
CCOC(=O)c1ccccc1Cl		243	
CC[C@H]1OC(=O)[C@H](C)[C@@H](O[C@H]2C[C@@](C)(OC)[C@@H](O)[C@H](C)O2)[C@H](C)[C@@H](O[C@@H]2O[C@H](C)C[C@H](N(C)C)[C@H]2O)[C@](C)(O)C[C@@H](C)C(=O)[C@H](C)[C@@H](O)[C@]1(C)O	191		
CCCCn1cccc1		170	
Nc1nc(N)c2[nH]cnc2n1	302		
COc1ccc2[nH]cc(CCN(C)C)c2c1	69.5		
Nc1ccc(Br)cc1Br	79.5		
CCCCCCCC(=O)OCC	-43.1	208	log10 Koc (L/kg): 3.02
SCc1ccccc1	-30	194	log10 vapour pressure (mmHg): -0.384
CCCCCCC(Cl)Cl		191	
CCCCCOC(=O)CC	-73.1	169	log10 vapour pressure (mmHg): 0.556
Clc1c(Cl)c(Cl)c2c(c1Cl)Oc1c(Cl)c(Cl)c(Cl)c(Cl)c1O2	330	510	log10 Koa: 12.1; log10 vapour pressure (mmHg): -12.1; log10 BCF: 3.12; log10 biotransformation half-life (days): 1.16
CC(C)(C)OC(=O)C(Cl)(Cl)Cl	25.5		
CC(C)COC(=O)C(C)C	-80.7	149	log10 vapour pressure (mmHg): 0.636
O=C(O)c1cccnc1	237		ready biodegradability: readily biodegradable
Cc1ccc(C(=O)c2ccccc2)cc1C	47.5	341	
BrCC(CBr)(CBr)CBr	163	306	ready biodegradability: not readily biodegradable; log10 BCF: 1.94; log10 biotransformation half-life (days): 0.76
ICCCI	-20		
Fc1nc(F)nc(F)n1	-38	72.8	
CCC1=C(C[C@@H]2NCCc3cc(OC)c(OC)cc32)C[C@H]2c3cc(OC)c(OC)cc3CCN2C1	95		
Cc1cccc[n+]1[O-]	49		
CCCCc1ccncc1		209	
